Patent US20060173022A1, “Heterocyclic amides, method for the production thereof, substances containing said heterocyclic amides, and use thereof as pesticides” (Bayer CropScience GmbH, priority 2003, published 2006)

melting point: 80 to 82 °C
Structure (SMILES): CO/N=C/CCNC(=O)c1cnccc1C(F)(F)F [Example I, N-(4-Trifluoromethylnicotinoyl)-3-aminopropionaldehyde O-methyl oxime]
